The text below walks through data of patent US5536645A, “Nutritive medium for the culture of microorganism” (priority 1993, dated 1996).

What all share (format): cell-based
For one test, the system named is Pseudomonas aeruginosa. The experiment in a line: Effect of L-malic acid on growth (FIG. 11). Particulars: 500 mg/l in FIG. 11. On the procedure:
FIGS. 11 illustrates the effect of L-malic acid on the growth of Pseudomonas aeruginosa, curve a corresponding to the growth obtained with an IST medium devoid of L-malic acid and curve b after addition of a concentration of 500 mg/l of L-malic acid.
(§1) The carbon sources of the medium of the invention are mainly represented by a sugar, preferably D-glucose, and an organic acid, in particular L-malic acid. D-glucose has been retained, taking account of its utilization by a large number of bacterial species with fermentative or non-fermentative metabolism (Stanier R. Y. et al. (1966) The aerobic Pseudomonas: a taxonomic study. J. Gen. Microbiol. 43: 159-271). Its concentration in the medium of the invention was determined to obtain a biomass close to that obtained with the reference Mueller-Hinton medium. […] The respective concentrations of D-glucose and L-malic acid were determined to correspond to the qualities of Mueller-Hinton.

Test [1] relates to non-saccharolytic species, such as Alcaligenes faecalis and Pseudomonas acidovorans. The experiment in a line: Effect of L-malic acid on growth (FIG. 10). As to conditions: 500 mg/l in FIG. 10. On the procedure:
as §1

Test [2] relates to Enterococcus hirae and Enterococcus faecium. The experiment in a line: Effect of tetrapeptide on growth (FIG. 14). As to conditions: 50 or 100 mg/l of peptide in FIG. 14. On the procedure: Curve a corresponds to the results obtained with the medium of the invention without addition of the abovementioned peptide, nor addition of constituent free amino acids of this peptide. Curve b illustrates the results obtained with the addition of amino acids Ala, Gly, Ser, GLu respectively at concentrations of 11, 9, 12.5 and 17.5 mg/l. […] Curve d corresponds to the bacterial growth obtained after addition to the medium of 50 mg/l of the peptide. Curve e illustrates the results obtained after addition of 100 mg/l of the same peptide.
Among the peptides tested, only those showing size a less than or equal to 15 amino acids cause a strong increase in the growth.

Another test has as its system staphylococci. The experiment in a line: Effect of ethyl oxaloacetate on growth (FIG. 8). Particulars: 5 mg/l in FIG. 8. The source says: Ethyl oxaloacetate is described for its stimulatory effect on the growth of numerous species (Pelczar M. J. and Brown J. H. (1951) Synthetic culture media for reference use in dairy bacteriology, J. Milk Food Technol., 14: 90-91 and 97).

`O=C(O)C[C@H](O)C(=O)O` [L-malic acid]: the growth result in the test on Pseudomonas aeruginosa was “increases the growth of Pseudomonas aeruginosa”; in test [1], “necessary for the growth of the non-saccharolytic species”.
On to “Ala-Gly-Ser-Glu (AGSE) [Ala-Gly-Ser-Glu (SEQ ID NO: 1)]”, for which the growth result in test [2] is listed as “considerable increase in the growth”.
Take ethyl oxaloacetate: the growth result in the test on staphylococci is recorded as “allowing the growth of the staphylococci to be increased without inhibiting that of the other species”.
